# Assay results published in PubChem BioAssay (NCI).
# Several values for one entry are separate records, joined by “and”; a condition that tells them apart may be missing. Equal values may be shown once.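 Cultured in 96-well plates, cells were exposed to test compound for 48 hours across five concentrations. At the GI50, growth is halved. Definition used: TGI = concentration required for complete inhibition of growth.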
# How the values were obtained:
# Assay in all cases: NCI anticancer screen, dose series, 48 h
# 786-0 renal = test system: 786-0 renal
# A549 NSCLC = test system: A549 NSCLC
# ACHN renal = test system: ACHN renal
# CCRF-CEM leukemia = test system: CCRF-CEM leukemia
# COLO 205 colon = test system: COLO 205 colon
# DLD-1 colon = test system: DLD-1 colon
# DMS 273 small cell lung = test system: DMS 273 small cell lung
# EKVX NSCLC = test system: EKVX NSCLC
# HCC-2998 colon = test system: HCC-2998 colon
# HCT-15 colon = test system: HCT-15 colon
# HL-60(TB) leukemia = test system: HL-60(TB) leukemia
# HOP-18 NSCLC = test system: HOP-18 NSCLC
# HOP-62 NSCLC = test system: HOP-62 NSCLC
# HOP-92 NSCLC = test system: HOP-92 NSCLC
# HT29 colon = test system: HT29 colon
# IGROV1 ovarian = test system: IGROV1 ovarian
# LOX IMVI melanoma = test system: LOX IMVI melanoma
# LXFL 529 NSCLC = test system: LXFL 529 NSCLC
# M19-MEL melanoma = test system: M19-MEL melanoma
# MALME-3M melanoma = test system: MALME-3M melanoma
# MOLT-4 leukemia = test system: MOLT-4 leukemia
# NCI-H226 lung = test system: NCI-H226 lung
# NCI-H23 lung = test system: NCI-H23 lung
# NCI-H460 lung = test system: NCI-H460 lung
# OVCAR-3 ovarian = test system: OVCAR-3 ovarian
# OVCAR-5 ovarian = test system: OVCAR-5 ovarian
# OVCAR-8 ovarian = test system: OVCAR-8 ovarian
# RPMI-8226 leukemia = test system: RPMI-8226 leukemia
# RXF 393 renal = test system: RXF 393 renal
# RXF-631 renal = test system: RXF-631 renal
# SF-268 CNS = test system: SF-268 CNS
# SF-295 CNS = test system: SF-295 CNS
# SF-539 CNS = test system: SF-539 CNS
# SK-MEL-2 melanoma = test system: SK-MEL-2 melanoma
# SK-MEL-28 melanoma = test system: SK-MEL-28 melanoma
# SK-OV-3 ovarian = test system: SK-OV-3 ovarian
# SN12C renal = test system: SN12C renal
# SNB-19 CNS = test system: SNB-19 CNS
# SNB-75 CNS = test system: SNB-75 CNS
# SNB-78 CNS = test system: SNB-78 CNS
# SR leukemia = test system: SR leukemia
# SW-620 colon = test system: SW-620 colon
# TK-10 renal = test system: TK-10 renal
# U251 CNS = test system: U251 CNS
# UACC-257 melanoma = test system: UACC-257 melanoma
# UACC-62 melanoma = test system: UACC-62 melanoma
# UO-31 renal = test system: UO-31 renal
# XF 498 CNS = test system: XF 498 CNS
# A498 renal = test system: A498 renal
# CAKI-1 renal = test system: CAKI-1 renal
# DMS 114 small cell lung = test system: DMS 114 small cell lung
# HCT-116 colon = test system: HCT-116 colon
# K-562 leukemia = test system: K-562 leukemia
# KM12 colon = test system: KM12 colon
# KM20L2 colon = test system: KM20L2 colon
# M14 melanoma = test system: M14 melanoma
# NCI-H522 lung = test system: NCI-H522 lung
# OVCAR-4 ovarian = test system: OVCAR-4 ovarian
# SK-MEL-5 melanoma = test system: SK-MEL-5 melanoma
smiles,measurement,setting,value
COC1CC(OC2C(C)OC(OC3C(C)OC(OC4CCC5(C)C(=CCC6(O)C5CC(OC(=O)c5ccc(O)cc5)C5(C)C(O)(C(C)=O)CCC65O)C4)CC3OC)CC2OC)OC(C)C1O (centres undefined) (tested in a mixture with another compound),TGI,786-0 renal,57.1 µM
same,TGI,A549 NSCLC,> 100 µM
same,TGI,ACHN renal,> 100 µM
same,TGI,CCRF-CEM leukemia,92.7 µM
same,TGI,COLO 205 colon,55.3 µM
same,TGI,DLD-1 colon,> 100 µM
same,TGI,DMS 273 small cell lung,> 100 µM
same,TGI,EKVX NSCLC,> 100 µM
same,TGI,HCC-2998 colon,60.5 µM
same,TGI,HCT-15 colon,> 100 µM
same,TGI,HL-60(TB) leukemia,46.9 µM
same,TGI,HOP-18 NSCLC,> 100 µM
same,TGI,HOP-62 NSCLC,> 100 µM
same,TGI,HOP-92 NSCLC,59.5 µM
same,TGI,HT29 colon,> 100 µM
same,TGI,IGROV1 ovarian,> 100 µM
same,TGI,LOX IMVI melanoma,34.8 µM
same,TGI,LXFL 529 NSCLC,78.4 µM
same,TGI,M19-MEL melanoma,> 100 µM
same,TGI,MALME-3M melanoma,74.6 µM
same,TGI,MOLT-4 leukemia,82.2 µM
same,TGI,NCI-H226 lung,> 100 µM
same,TGI,NCI-H23 lung,81.6 µM
same,TGI,NCI-H460 lung,> 100 µM
same,TGI,OVCAR-3 ovarian,57.2 µM
same,TGI,OVCAR-5 ovarian,> 100 µM
same,TGI,OVCAR-8 ovarian,82.5 µM
same,TGI,RPMI-8226 leukemia,95.8 µM
same,TGI,RXF 393 renal,> 100 µM
same,TGI,RXF-631 renal,> 100 µM
same,TGI,SF-268 CNS,> 100 µM
same,TGI,SF-295 CNS,> 100 µM
same,TGI,SF-539 CNS,72.6 µM
same,TGI,SK-MEL-2 melanoma,45.3 µM
same,TGI,SK-MEL-28 melanoma,> 100 µM
same,TGI,SK-OV-3 ovarian,> 100 µM
same,TGI,SN12C renal,> 100 µM
same,TGI,SNB-19 CNS,> 100 µM
same,TGI,SNB-75 CNS,> 100 µM
same,TGI,SNB-78 CNS,57.2 µM
same,TGI,SR leukemia,76.5 µM
same,TGI,SW-620 colon,> 100 µM
same,TGI,TK-10 renal,> 100 µM
same,TGI,U251 CNS,57.5 µM
same,TGI,UACC-257 melanoma,51.3 µM
same,TGI,UACC-62 melanoma,52.7 µM
same,TGI,UO-31 renal,75 µM
same,TGI,XF 498 CNS,9.05 µM
c1ccc(CNc2ccc3[nH]c4cnccc4c3c2)cc1,TGI,786-0 renal,29.3 µM
same,TGI,A498 renal,28.6 µM
same,TGI,A549 NSCLC,34.7 µM
same,TGI,ACHN renal,29 µM
same,TGI,CAKI-1 renal,30.4 µM
same,TGI,CCRF-CEM leukemia,42.5 µM
same,TGI,COLO 205 colon,31 µM
same,TGI,DLD-1 colon,31.9 µM
same,TGI,DMS 114 small cell lung,32.1 µM
same,TGI,DMS 273 small cell lung,37.4 µM
same,TGI,EKVX NSCLC,43.4 µM
same,TGI,HCC-2998 colon,33.2 µM
same,TGI,HCT-116 colon,33.2 µM
same,TGI,HCT-15 colon,39.1 µM
same,TGI,HL-60(TB) leukemia,27.4 µM
same,TGI,HOP-62 NSCLC,31.7 µM
same,TGI,HOP-92 NSCLC,30.8 µM
same,TGI,HT29 colon,31.7 µM
same,TGI,IGROV1 ovarian,34.4 µM
same,TGI,K-562 leukemia,36.5 µM
same,TGI,KM12 colon,31.1 µM
same,TGI,KM20L2 colon,30.9 µM
same,TGI,LOX IMVI melanoma,33.5 µM
same,TGI,LXFL 529 NSCLC,30.5 µM
same,TGI,M14 melanoma,32.9 µM
same,TGI,M19-MEL melanoma,36.3 µM
same,TGI,MALME-3M melanoma,35.8 µM
same,TGI,MOLT-4 leukemia,36.9 µM
same,TGI,NCI-H226 lung,38.4 µM
same,TGI,NCI-H23 lung,32.3 µM
same,TGI,NCI-H460 lung,34.1 µM
same,TGI,NCI-H522 lung,29.1 µM
same,TGI,OVCAR-3 ovarian,27 µM
same,TGI,OVCAR-4 ovarian,29.1 µM
same,TGI,OVCAR-5 ovarian,30.9 µM
same,TGI,OVCAR-8 ovarian,36.5 µM
same,TGI,RPMI-8226 leukemia,54.7 µM
same,TGI,RXF 393 renal,26.8 µM
same,TGI,RXF-631 renal,49.2 µM
same,TGI,SF-268 CNS,35 µM
same,TGI,SF-295 CNS,32.6 µM
same,TGI,SF-539 CNS,33.3 µM
same,TGI,SK-MEL-2 melanoma,33.1 µM
same,TGI,SK-MEL-28 melanoma,27.1 µM
same,TGI,SK-MEL-5 melanoma,30.2 µM
same,TGI,SK-OV-3 ovarian,41.5 µM
same,TGI,SN12C renal,33.3 µM
same,TGI,SNB-19 CNS,29.6 µM
same,TGI,SNB-75 CNS,19.8 µM
same,TGI,SNB-78 CNS,38.5 µM
same,TGI,SW-620 colon,42.2 µM
same,TGI,TK-10 renal,36.2 µM
same,TGI,U251 CNS,32 µM
same,TGI,UACC-257 melanoma,31.4 µM
same,TGI,UACC-62 melanoma,34 µM
same,TGI,UO-31 renal,29.4 µM
same,TGI,XF 498 CNS,35.8 µM
CCOc1ccc(/C=C\c2cc(OC)c(OC)c(OC)c2)cc1,TGI,786-0 renal,> 100 µM
same,TGI,A498 renal,0.0248 µM
same,TGI,A549 NSCLC,> 100 µM
same,TGI,ACHN renal,> 100 µM
same,TGI,CAKI-1 renal,18.6 µM
same,TGI,CCRF-CEM leukemia,91.3 µM
same,TGI,COLO 205 colon,0.399 µM
same,GI50,DLD-1 colon,0.0292 µM
same,TGI,DLD-1 colon,> 100 µM
same,TGI,EKVX NSCLC,> 100 µM
same,TGI,HCT-116 colon,0.152 µM
same,GI50,HCT-15 colon,0.0322 µM
same,TGI,HCT-15 colon,0.286 µM
same,TGI,HL-60(TB) leukemia,0.00354 µM and 0.0155 µM
same,GI50,HOP-18 NSCLC,> 100 µM
same,TGI,HOP-18 NSCLC,> 100 µM
same,TGI,HOP-92 NSCLC,0.0512 µM
same,GI50,IGROV1 ovarian,0.0317 µM
same,TGI,IGROV1 ovarian,> 100 µM
same,TGI,K-562 leukemia,> 100 µM
same,GI50,KM12 colon,0.0172 µM
same,TGI,KM12 colon,0.185 µM
same,TGI,KM20L2 colon,0.00113 µM
same,TGI,LOX IMVI melanoma,> 100 µM
same,TGI,M14 melanoma,> 100 µM
same,TGI,M19-MEL melanoma,> 100 µM
same,TGI,MOLT-4 leukemia,17.8 µM
same,TGI,NCI-H226 lung,0.0223 µM and 0.024 µM
same,TGI,NCI-H23 lung,0.111 µM
same,GI50,OVCAR-4 ovarian,0.403 µM
same,TGI,OVCAR-4 ovarian,> 100 µM
same,TGI,OVCAR-5 ovarian,61.7 µM
same,TGI,RPMI-8226 leukemia,5.03 µM
same,TGI,RXF 393 renal,0.000904 µM
same,TGI,RXF-631 renal,> 100 µM
same,TGI,SF-268 CNS,> 100 µM
same,TGI,SF-295 CNS,0.000209 µM
same,TGI,SF-539 CNS,0.000685 µM
same,TGI,SK-MEL-28 melanoma,> 100 µM
same,TGI,SK-MEL-5 melanoma,0.117 µM
same,TGI,SN12C renal,60.5 µM
same,TGI,SNB-75 CNS,0.000226 µM
same,TGI,SNB-78 CNS,> 100 µM
same,TGI,SW-620 colon,> 100 µM
same,TGI,TK-10 renal,> 100 µM
same,TGI,U251 CNS,0.0132 µM and 0.0341 µM
same,TGI,UACC-257 melanoma,98.6 µM
same,TGI,UACC-62 melanoma,> 100 µM
same,TGI,XF 498 CNS,0.0917 µM
